# Assay results: EP2077092A2, “System and Methods for Screening or Analyzing Targets” (Taipei Veterans General Hospital, priority 2007, dated 2009)
# What was measured:
# Format in all cases: cell-based, Sprague-Dawley (SD) rats
# Bad = assay: Real-time RT-PCR of Bad mRNA in IM-treated NSCs; conditions: Day 3, Day 5, and Day 7 of IM-treated NSCs
# Experimental: (§1) All animals used were treated in accordance with the Animal Care and Use Committee guideline at Taipei Veterans General Hospital. The protocol of the present study was also approved by the committee. Adult Sprague-Dawley (SD) rats (8 weeks old, 250 g) were anesthetized with intraperitoneal phenobarbital (Sigma, USA), and the location of their brains was mapped. Then, the brain […]. In brief, tissues from the hippocampus of adult rats were dissociated and incubated in Hank's balanced salt solution (HBSS) containing collagenase (78 units/ml) and hyaluronidase (38 units/ml) for 10 minutes at 37°C. The tissues were then mechanically dissected and placed in a trypsin solution (1.33 mg/ml) at 37°C for another 10 minutes. Dissociated cells were then centrifuged at 150 GG for 5 minutes. […] Viable cells were counted by trypan blue exclusion and plated as 5000 cells/200 µL per well in 96-well plates (Coming Inc, Acton, MA, USA) with no substrate pretreatment. […]
# (§2) For real-time RT-PCR, the total RNA was extracted using the RNAeasy kit (Qiagen, Valencia, CA, USA). […] The quantification in the unknown samples was performed with LightCycler Relative Quantification Software version 3.3 (Roche Molecular Systems, Alameda, CA, USA). […]
# Bax = assay: Real-time RT-PCR of Bax mRNA in IM-treated NSCs; conditions: Day 3, Day 5, and Day 7 of IM-treated NSCs
# Experimental: as §1, §2
# TNF-α = TNF-α ELISA in LPS-treated NSCs; conditions: vs only LPS-treated NSCs, IM 3 µM, p<0.05
# Bcl-2 = assay: Real-time RT-PCR of Bcl-2 mRNA in IM-treated NSCs
# Experimental: as §1, §2
# NSCs = assay: Immunofluorescent assay of serotonin (5-HT)-positive cells in differentiating NSCs; conditions: Day 7 culture of IM-treated NSCs vs non IM-treated NSCs, p<0.05
# MAP2 = assay: Real-time RT-PCR of MAP2 mRNA in IM-treated NSCs; conditions: Days 5 and Day 7 IM-treated NSCs vs non IM-treated NSCs, p<0.05
# Experimental: as §1, §2
# LPS-treated NSCs = assay: TUNEL assay of LPS-induced apoptosis in NSCs; conditions: LPS-treated NSCs, vs LPS-treated NSCs without treatment
structure (smiles),measurement,setting,value
"CN(C)CCCN1c2ccccc2CCc2ccccc21 [IM, imipramine]",expression of Bad,Bad,not activated
same,expression of Bax,Bax,not activated
same,TNF-α production in the LPS-treated NSCs,TNF-α,effectively reduces
same,levels of Bcl-2 mRNA,"Bcl-2; 1, 3, and 5 µM IM, Day 7, vs Day 7 non-IM-treated NSCs",significantly increased
same,mRNA levels of Bcl-2,"Bcl-2; Days 5 and Day 7 IM-treated NSCs vs non IM-treated NSCs, p<0.05",significantly increased
same,percentages of serotonin (5-HT)-positive cells,NSCs,significantly increased
same,mRNA levels of MAP2,MAP2,significantly increased
same,LPS-induced apoptosis (TUNEL assay),LPS-treated NSCs,protected against LPS-induced apoptosis
